Test results: paper PMC7539012, “Hyperphosphorylated tau aggregation and cytotoxicity modulators screen identified prescription drugs linked to Alzheimer's disease and cognitive functions” (Scientific Reports, 2020)
Counter-ions that a name gives are not always drawn.
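For ThS net change in this document: 30 µM compound with 6 µM p-tau over 16 h.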

Each compound was assayed on T1, 1N4R p-tau (assay: p-tau aggregation modulator screen of 1280-compound library (ThS fluorescence net change over 16 h)). Settings: not given.
T1 construct: made in house; host or cells: E. coli (PIMAX system)
Format: biochemical
Parameters: key to PTAI>2SD: *: PTAI>2SD; key to PTAI>3SD: *: PTAI>3SD
With `CC[N+](C)(CC)CCC[n+]1c(-c2ccccc2)c2cc(N)ccc2c2ccc(N)cc21.[I-].[I-]` [Propidium iodide] the ThS net change was 269. `CN[C@H](CC(C)C)C(=O)N[C@H]1C(=O)N[C@@H](CC(N)=O)C(=O)N[C@H]2C(=O)N[C@H]3C(=O)N[C@H](C(=O)N[C@H](C(=O)O)c4cc(O)cc(O)c4-c4cc3ccc4O)[C@H](O)c3ccc(c(Cl)c3)Oc3cc2cc(c3O[C@@H]2O[C@H](CO)[C@@H](O)[C@H](O)[C@H]2O[C@H]2C[C@](C)(N)[C@H](O)[C@H](C)O2)Oc2ccc(cc2Cl)[C@H]1O` [Vancomycin hydrochloride] was tested, and the ThS net change was 408. `COc1ccc2cc([C@@H](C)C(=O)[O-])ccc2c1.[Na+]` [(R) -Naproxen sodium salt] showed a ThS net change of 376. `CN(C)C/C=C(\c1ccc(Br)cc1)c1cccnc1.Cl.Cl.O` [Zimelidine dihydrochloride monohydrate] showed a ThS net change of 325. `CCCCN(CCCC)CCC(O)c1cc2c(Cl)cc(Cl)cc2c2cc(C(F)(F)F)ccc12` (stereo not shown) [Halofantrine hydrochloride] was tested, and the ThS net change was 555. `CN(C)CCc1c[nH]c2ccc(Cn3cncn3)cc12` [Rizatriptan benzoate] was tested, and the ThS net change was 473. For `CN(C)CCCN1c2ccccc2CCc2ccc(Cl)cc21` [Clomipramine hydrochloride], the ThS net change was 307.

Same assay, conditions: 1280-compound library screen; ThS fluorescence net change over 16 h
`O=C(NC(Cc1cc(=O)[nH]c2ccccc12)C(=O)O)c1ccc(Cl)cc1` (stereo not shown) [Rebamipide] was tested, and the ThS net change was 378. `CC[N+](CC)(CC)CCC(O)(c1ccccc1)C1CCCCC1.[Cl-]` (stereo not shown) [Tridihexethyl chloride] showed a ThS net change of 402. `COc1ccccc1O` [Guaiacol] gave a ThS net change of 397. With `CCCN(CCC)CCc1cccc2c1CC(=O)N2` [Ropinirole HCl] the ThS net change was 388. In the case of `CC(C)(S)C(N)C(=O)O` (racemic) [D,L-Penicillamine], the ThS net change is reported as 385. For `Cn1nnc2c(C(N)=O)ncn2c1=O` [Temozolomide], the ThS net change was 380. Work on `NC1CONC1=O` (stereo in doubt) [(S)-(-)-Cycloserine] yielded a ThS net change of 391. In the case of `COc1cc(C(=O)N2CCOCC2)cc(OC)c1OC` [Trimetozine], the ThS net change is reported as 404. `CC(=O)Nc1ccc(OCC(O)CNC(C)C)cc1` (stereo not shown) [Practolol] showed a ThS net change of 383. With `CC(C)(C)NCC(O)c1ccccc1Cl` (stereo not shown) [Tulobuterol] the ThS net change was 398. Work on `CC(=O)OCC(=O)[C@@]1(O)CC[C@H]2[C@@H]3CCC4=CC(=O)C=C[C@]4(C)[C@@]3(F)[C@@H](O)C[C@@]21C` [Isoflupredone acetate] yielded a ThS net change of 388. `C[C@]12CCC(=O)C=C1CC[C@@H]1[C@@H]2C(=O)C[C@@]2(C)[C@H]1CC[C@]2(O)C(=O)CO` [Cortisone] showed a ThS net change of 403. Compound `N=C(N)N/N=C/c1c(Cl)cccc1Cl` [Guanabenz acetate] has a ThS net change of 405. With `C#C[C@]1(O)CC[C@H]2[C@@H]3CCc4cc(OC)ccc4[C@H]3CC[C@@]21C` [Ethynylestradiol 3-methyl ether] the ThS net change was 406. With `C=C1/C(=C\C=C2/CCC[C@]3(C)[C@@H]([C@H](C)/C=C/[C@@H](O)C4CC4)CC[C@@H]23)C[C@@H](O)C[C@@H]1O` [Calcipotriene] the ThS net change was 407. `Nc1ncnc2c1ncn2[C@@H]1O[C@H](CO)[C@@H](O)[C@@H]1O` [Vidarabine] gave a ThS net change of 401.

Same assay, conditions: 1280-compound library screen; […]
With `NC(=NCc1ccccc1)NC(=O)c1nc(Cl)c(N)nc1N` [Benzamil hydrochloride] the ThS net change was 379. With `O=C(O)CCCc1ccc(N(CCCl)CCCl)cc1` [Chlorambucil] the ThS net change was 386. Compound `CCC1(CC)C(=O)C=CNC1=O` [Pyrithyldione] has a ThS net change of 404. With `C[C@]12Cc3c[nH]nc3C[C@@H]1CC[C@@H]1[C@@H]2CC[C@@]2(C)[C@H]1CC[C@]2(C)O` [Stanozolol] the ThS net change was 403. With `CC(=O)Nc1c(I)c(NC(C)=O)c(I)c(C(=O)O)c1I.O.O` [Diatrizoic acid dihydrate] the ThS net change was 407. `O=C(O)CCCC[C@@H]1SC[C@@H]2NC(=O)N[C@@H]21` [Biotin] showed a ThS net change of 380. Work on `Oc1cc(Cl)ccc1Oc1ccc(Cl)cc1Cl` [Triclosan] yielded a ThS net change of 398.

Same assay, conditions: flag: p-tau aggregation inhibitor, ThS net change more than 2 SD from mean
In the case of `C=C1c2c(Cl)ccc(O)c2C(=O)C2=C(O)[C@]3(O)C(=O)C(C(N)=O)=C(O)[C@@H](N(C)C)[C@@H]3[C@@H](O)[C@H]12.O=C(O)c1cc(S(=O)(=O)O)ccc1O` [Meclocycline sulfosalicylate], the “PTAI>2SD” value is reported as “*”. For `CCN(CC)CCNc1ccc(CO)c2sc3ccccc3c(=O)c12` [Hycanthone], the “PTAI>2SD” value was “*”.

Same assay, conditions: flag: p-tau aggregation inhibitor, ThS net change more than 3 SD from mean
In the case of `OCCN(CCO)c1nc(N2CCCCC2)c2nc(N(CCO)CCO)nc(N3CCCCC3)c2n1` [Dipyridamole], the “PTAI>3SD” value is reported as “*”.

Same assay, conditions: library screen, ThS fluorescence net change over 16 h with p-tau
`COc1cc(C(=O)NCc2ccc(OCCN(C)C)cc2)cc(OC)c1OC` [Trimethobenzamide hydrochloride] gave a ThS net change of 322. Compound `O=c1[nH]cnc2c1ncn2[C@H]1CC[C@@H](CO)O1` [Didanosine] has a ThS net change of 321. `CCN(CC)CCOC(=O)C1(C2CCCCC2)CCCCC1` [Dicyclomine hydrochloride] showed a ThS net change of 282. Work on `O=C(CCCN1CCC(O)(c2ccc(Cl)cc2)CC1)c1ccc(F)cc1` [Haloperidol] yielded a ThS net change of 319. With `CCCN1C[C@H](CSC)C[C@@H]2c3cccc4[nH]cc(c34)C[C@H]21` [Pergolide mesylate] the ThS net change was 279. `COc1cc2nc(N3CCN(C(=O)C4COc5ccccc5O4)CC3)nc(N)c2cc1OC` (stereo not shown) [Doxazosin mesylate] showed a ThS net change of 310. `C=C1c2c(Cl)ccc(O)c2C(=O)C2=C(O)[C@]3(O)C(=O)C(C(N)=O)=C(O)[C@@H](N(C)C)[C@@H]3[C@@H](O)[C@H]12.O=C(O)c1cc(S(=O)(=O)O)ccc1O` [Meclocycline sulfosalicylate] was tested, and the ThS net change was 171. For `O=C(O)c1cc(/N=N/c2ccc(S(=O)(=O)Nc3ccccn3)cc2)ccc1O` [Sulfasalazine], the ThS net change was 282. `OCCN(CCO)c1nc(N2CCCCC2)c2nc(N(CCO)CCO)nc(N3CCCCC3)c2n1` [Dipyridamole] was tested, and the ThS net change was -5843. `CCN(CC)CCNc1ccc(CO)c2sc3ccccc3c(=O)c12` [Hycanthone] showed a ThS net change of 171.

Same assay, conditions: p-tau aggregation modulator screen of 1280-compound library; ThS fluorescence net change
Compound `CNCCC(Oc1ccc(C(F)(F)F)cc1)c1ccccc1` (stereo not shown) [Fluoxetine hydrochloride] has a ThS net change of 370. `O=C(CCCN1CCC(O)(c2ccc(Br)cc2)CC1)c1ccc(F)cc1` [Bromperidol] showed a ThS net change of 337. `CC1(C)O[C@@H]2C[C@H]3[C@@H]4C[C@H](F)C5=CC(=O)CC[C@]5(C)[C@H]4[C@@H](O)C[C@]3(C)[C@]2(C(=O)CO)O1` [Flurandrenolide] was tested, and the ThS net change was 377. Compound `C(=C\c1ccccc1)/CN1CCN(C(c2ccccc2)c2ccccc2)CC1` [Cinnarizine] has a ThS net change of 356. With `CC(CN1c2ccccc2Sc2ccccc21)N(C)C` (stereo not shown) [Promethazine hydrochloride] the ThS net change was 330. In the case of `CC(=O)N1CCN(c2ccc(OCC3COC(Cn4ccnc4)(c4ccc(Cl)cc4Cl)O3)cc2)CC1` (stereo not shown) [Ketoconazole], the ThS net change is reported as 350. `Cl.Nc1nc2ccc(OC(F)(F)F)cc2s1` [Riluzole hydrochloride] showed a ThS net change of 353. `[H]/N=C(/N)NS(=O)(=O)c1ccc(N)cc1` [Sulfaguanidine] was tested, and the ThS net change was 364. Work on `NS(=O)(=O)Cc1noc2ccccc12` [Zonisamide] yielded a ThS net change of 341. With `CN(C(=O)C(Cl)Cl)c1ccc(OC(=O)c2ccco2)cc1` [Diloxanide furoate] the ThS net change was 371. Work on `CN(C)CCN(Cc1cccs1)c1ccccn1` [Methapyrilene hydrochloride] yielded a ThS net change of 370. For `OCCN1CCN(CCCN2c3ccccc3Sc3ccc(C(F)(F)F)cc32)CC1` [Fluphenazine dihydrochloride], the ThS net change was 370. In the case of `CN1CCC(=C2c3ccccc3C=Cc3ccccc32)CC1` [Cyproheptadine hydrochloride], the ThS net change is reported as 375. `C[C@]12C=CC(=O)C=C1CC[C@@H]1[C@@H]2C(=O)C[C@@]2(C)[C@H]1CC[C@]2(O)C(=O)CO` [Prednisone] showed a ThS net change of 366. With `N=C(N)N1CCc2ccccc2C1` [Debrisoquin sulfate] the ThS net change was 360.

Same assay, conditions: p-tau aggregation modulator screen of 1280-compound library; […]
With Deoxycorticosterone the ThS net change was 346. Compound `Br.C[N+]1([O-])[C@@H]2C[C@@H](OC(=O)[C@H](CO)c3ccccc3)C[C@H]1[C@@H]1O[C@@H]12` (stereo partly shown) [Scopolamin-N-oxide hydrobromide] has a ThS net change of 345. Compound `C[C@]12CCC(=O)C=C1C=C[C@@H]1[C@@H]2CC[C@@]2(C)[C@H]1CC[C@@]2(O)CCC(=O)[O-].[K+]` [Canrenoic acid potassium salt] has a ThS net change of 329. Compound `CCN(CC)CCCC(C)Nc1ccnc2cc(Cl)ccc12` (stereo not shown) [Chloroquine diphosphate] has a ThS net change of 338.

Same assay, conditions: p-tau aggregation modulator screen of the compound library, ThS fluorescence net change
`CN(C/C=C/c1ccccc1)Cc1cccc2ccccc12` [Naftifine hydrochloride] showed a ThS net change of 539. For `C[C@]12CC[C@@H]3c4ccc(O)cc4C[C@@H](CCCCCCCCC[S+]([O-])CCCC(F)(F)C(F)(F)F)[C@H]3[C@@H]1CC[C@@H]2O` (stereo partly shown) [Fulvestrant], the ThS net change was 442. Work on `O=C(OCCOCCO)c1ccccc1Nc1cccc(C(F)(F)F)c1` [Etofenamate] yielded a ThS net change of 425. Work on `CCCN(CCC)S(=O)(=O)c1ccc(C(=O)O)cc1` [Probenecid] yielded a ThS net change of 416. `CC(=O)N[C@@H](CC(=O)N[C@@H](CCC(=O)O)C(=O)O)C(=O)O` [Spaglumic acid] was tested, and the ThS net change was 425. Compound `Nc1nc(F)nc2c1ncn2[C@@H]1O[C@H](CO)[C@@H](O)[C@@H]1O` [Fludarabine] has a ThS net change of 428. `COc1ccc2[nH]c([S+]([O-])Cc3ncc(C)c(OC)c3C)nc2c1` (stereo not shown) [Omeprazole] showed a ThS net change of 454. Work on `Nc1ccccc1S(N)(=O)=O` [2-Aminobenzenesulfonamide] yielded a ThS net change of 430. Compound `CCOC(=O)OC(C)OC1=C(C(=O)Nc2ccccn2)N(C)S(=O)(=O)c2ccccc21` (stereo not shown) [Ampiroxicam] has a ThS net change of 493. With `CC(C)OC(=O)C(C)(C)Oc1ccc(C(=O)c2ccc(Cl)cc2)cc1` [Fenofibrate] the ThS net change was 531. `CC(C)COCC(CN(Cc1ccccc1)c1ccccc1)N1CCCC1` (stereo not shown) [Bepridil hydrochloride] was tested, and the ThS net change was 418. `CO[C@@]1(NC(=O)CSCC#N)C(=O)N2C(C(=O)O)=C(CSc3nnnn3C)CS[C@@H]21` [Cefmetazole sodium salt] was tested, and the ThS net change was 468. Work on `NC(=O)OCC(COC(N)=O)c1ccccc1` [Felbamate] yielded a ThS net change of 439. `C#C[C@]1(OC(C)=O)CC[C@H]2[C@@H]3CCC4=CC(=NO)CC[C@@H]4[C@H]3CC[C@@]21CC` (mixture of isomers) [Norgestimate] was tested, and the ThS net change was 486.
